Laboratory results: patent US9840510B1, “Pyrazolo[1,5-a]pyrimidinyl carboxamide compounds and their use in the treatment of medical disorders” (Lysosomal Therapeutics Inc., priority 2016, dated 2017)
Converted amounts (≈) assume the structure as drawn.

Assay: Compound solubility in water
Assay type: physicochemical

| solubility | Compound |
| --- | --- |
| 0.3 µg/mL (≈ 0.735 µM) | Cc1cc(-c2nnc(C(C)C)o2)nc2c(C(=O)N[C@H](C3CC3)C(F)(F)F)cnn12 [III-391] |
| 21.4 µg/mL (≈ 64.8 µM) | CO[C@H]1CC[C@H]([C@@H](C)NC(=O)c2cnn3c(C)cc(C)nc23)CC1 [III-403] |
| 0.7 µg/mL (≈ 1.85 µM) | Cc1cnc(-c2cc(C)n3ncc(C(=O)NC(C4CC4)C(F)(F)F)c3n2)o1 (centres unmarked) [III-253] |
| 12.5 µg/mL (≈ 34.4 µM) | Cc1ccncc1-c1cc(C)n2ncc(C(=O)NC(C)C(F)(F)F)c2n1 (centres unmarked) [III-281] |
| 19 µg/mL (≈ 44.6 µM) | Cc1cc(N2CCCN(C(C)C)C2=O)nc2c(C(=O)NC(C)(C)C(F)(F)F)cnn12 [III-262] |
| 13.5 µg/mL (≈ 34 µM) | CCc1cc(N2CCOCC2)nc2c(C(=O)NC(C3CC3)C(F)(F)F)cnn12 (centres unmarked) [III-238] |
| 0.3 µg/mL (≈ 0.759 µM) | Cc1cc(-c2cc(C)n3ncc(C(=O)N[C@H](C4CC4)C(F)(F)F)c3n2)sn1 [III-215] |
| 21 µg/mL (≈ 43.9 µM) | Cc1cc(N2CCCN(CC(F)(F)F)C2=O)nc2c(C(=O)NC(C3CC3)C(F)(F)F)cnn12 (centres unmarked) [III-260] |
| 1.3 µg/mL (≈ 3.21 µM) | COc1cncc(-c2cc(C)n3ncc(C(=O)NC(C4CC4)C(F)(F)F)c3n2)c1 (centres unmarked) [III-265] |
| 0.3 µg/mL (≈ 0.679 µM) | CCCCO[C@H]1CC[C@H](NC(=O)c2cnn3c(C)cc(-c4cncc(Cl)c4)nc23)CC1 [III-293] |
| 8.3 µg/mL (≈ 18.7 µM) | Cc1cc(-c2cnccc2C(F)(F)F)nc2c(C(=O)N[C@H](C3CC3)C(F)(F)F)cnn12 [III-353] |
| 0.9 µg/mL (≈ 2.27 µM) | COc1ccc(F)c(-c2cc(C)n3ncc(C(=O)NC(C)C(F)(F)F)c3n2)c1 (centres unmarked) [III-409] |
| 1.9 µg/mL (≈ 5.06 µM) | Cc1nc2cc(-c3cc(C)n4ncc(C(=O)N[C@@H](C)C5CC5)c4n3)ccc2o1 [III-321] |
| 0.6 µg/mL (≈ 1.58 µM) | Cc1coc(-c2cc(C)n3ncc(C(=O)NC(C4CC4)C(F)(F)F)c3n2)n1 (centres unmarked) [III-254] |
| 2.4 µg/mL (≈ 6.28 µM) | Cc1cc(N2CCNC2=O)nc2c(C(=O)NC(C3CC3)C(F)(F)F)cnn12 (centres unmarked) [III-228] |
| 0.8 µg/mL (≈ 2.02 µM) | Cc1cc(-c2cccc(Cl)c2)nc2c(C(=O)NC(C)(C)C(F)(F)F)cnn12 [III-406] |
| 0.6 µg/mL (≈ 1.46 µM) | Cc1cc(-c2cc(F)c3c(c2)OCO3)nc2c(C(=O)NC(C)C(F)(F)F)cnn12 (centres unmarked) [III-294] |
| 11 µg/mL (≈ 32.4 µM) | Cc1ncc(-c2cc(C)n3ncc(C(=O)NC(C)(C)C4CC4)c3n2)o1 [III-252] |
| 3.4 µg/mL (≈ 8.35 µM) | Cc1cc(-c2cc(F)c3ocnc3c2)nc2c(C(=O)NC(C)C(F)(F)F)cnn12 (centres unmarked) [III-295] |
| 0.1 µg/mL (≈ 0.256 µM) | Cc1cc(-c2cccc(F)c2C#N)nc2c(C(=O)N[C@@H](C)C(F)(F)F)cnn12 [III-399] |
| 3.1 µg/mL (≈ 8.17 µM) | COc1ccc(-c2cc(C)n3ncc(C(=O)N[C@H](C)C(F)(F)F)c3n2)cn1 [III-272] |
| 5.3 µg/mL (≈ 13.6 µM) | Cc1cncc(-c2cc(C)n3ncc(C(=O)N[C@@H](C4CC4)C(F)(F)F)c3n2)c1 [III-277] |
| 14.6 µg/mL (≈ 38.8 µM) | Cc1cc(-c2ccnnc2)nc2c(C(=O)NC(C3CC3)C(F)(F)F)cnn12 (centres unmarked) [III-325] |
| 1.2 µg/mL (≈ 2.74 µM) | CCc1cc(N2CCN(C(C)C)C2=O)nc2c(C(=O)NC(C3CC3)C(F)(F)F)cnn12 (centres unmarked) [III-224] |
| 1 µg/mL (≈ 2.54 µM) | Cc1nc(-c2cc(C)n3ncc(C(=O)N[C@H](C4CC4)C(F)(F)F)c3n2)oc1C [III-331] |
| 1.2 µg/mL (≈ 2.96 µM) | COc1ccc(-c2cc(C)n3ncc(C(=O)NC(C4CC4)C(F)(F)F)c3n2)cn1 (centres unmarked) [III-268] |
| 0.04 µg/mL (≈ 0.0884 µM) | Cc1cc(-c2cccc(-c3ncccn3)c2)nc2c(C(=O)NC(C3CC3)C(F)(F)F)cnn12 (centres unmarked) [III-417] |

The next lines start with the compound.

| Compound | solubility |
| --- | --- |
| Cc1cc(-c2cccc(Cl)c2)nc2c(C(=O)NC(C)C(F)(F)F)cnn12 (centres unmarked) [III-64] | 6.2 µg/mL (≈ 16.2 µM) |
| Cc1cc(-c2ccc3ocnc3c2)nc2c(C(=O)N[C@H](C)C(F)(F)F)cnn12 [III-167] | 0.7 µg/mL (≈ 1.8 µM) |
| Cc1cc(-c2cccnc2F)nc2c(C(=O)N[C@@H](C3CC3)C(F)(F)F)cnn12 [III-115] | 1.9 µg/mL (≈ 4.83 µM) |
| Cc1cc(-c2ccc(F)c(C(N)=O)c2)nc2c(C(=O)NC(C3CC3)C(F)(F)F)cnn12 (centres unmarked) [III-162] | 1 µg/mL (≈ 2.3 µM) |
| CCc1cc(-c2ccccn2)nc2c(C(=O)NC(C)C3CC3)cnn12 (centres unmarked) [III-49] | 2.5 µg/mL (≈ 7.45 µM) |
| Cc1cc(-c2ccc(F)cc2)nc2c(C(=O)NC(C3CC3)C(F)(F)F)cnn12 (centres unmarked) [III-163] | 0.4 µg/mL (≈ 1.02 µM) |
| Cc1cc(-c2ccccc2C#N)nc2c(C(=O)NC(C3CC3)C(F)(F)F)cnn12 (centres unmarked) [III-211] | 0.2 µg/mL (≈ 0.501 µM) |
| Cc1cc(C)n2ncc(C(=O)NC(c3ccc(F)cc3)C(F)(F)F)c2n1 (centres unmarked) [III-184] | 1.1 µg/mL (≈ 3 µM) |
| Cc1cc(-c2cc(F)cc(C#N)c2)nc2c(C(=O)N[C@@H](C)C3CC3)cnn12 [III-128] | 3 µg/mL (≈ 8.26 µM) |
| Cc1cc(-n2ccc(Cl)n2)nc2c(C(=O)NC(C3CC3)C(F)(F)F)cnn12 (centres unmarked) [III-107] | 0.1 µg/mL (≈ 0.251 µM) |
| Cc1cc(-c2cccc(C(N)=O)c2)nc2c(C(=O)NC(C3CC3)C(F)(F)F)cnn12 (centres unmarked) [III-73] | 0.4 µg/mL (≈ 0.958 µM) |
| Cc1cc(-c2cncc(Cl)c2)nc2c(C(=O)N[C@@H](C3CC3)C(F)(F)F)cnn12 [III-121] | 0.7 µg/mL (≈ 1.71 µM) |
| CCc1cc(-c2ccccn2)nc2c(C(=O)NC(C)C(F)(F)F)cnn12 (centres unmarked) [III-52] | 2.4 µg/mL (≈ 6.61 µM) |
| Cc1cc(-c2cccnc2)nc2c(C(=O)N[C@@H](C3CC3)C(F)(F)F)cnn12 [III-89] | 10.4 µg/mL (≈ 27.7 µM) |
| Cc1cc(-c2ccccn2)nc2c(C(=O)NC(C3CC3)C(F)(F)F)cnn12 (centres unmarked) [III-36] | 0.4 µg/mL (≈ 1.07 µM) |
| Cc1cc(NC2CC2)nc2c(C(=O)NC(C)C(F)(F)F)cnn12 (centres unmarked) [III-165] | 4 µg/mL (≈ 12.2 µM) |
| Cc1cc(N2CCCC(F)(F)C2)nc2c(C(=O)NC(C)C(F)(F)F)cnn12 (centres unmarked) [III-179] | 1.1 µg/mL (≈ 2.81 µM) |
| Cc1cc(N2CCCCC2)nc2c(C(=O)NC(C)(C)C3CC3)cnn12 [III-23] | 6.8 µg/mL (≈ 19.9 µM) |

| Compound | solubility |
| --- | --- |
| Cc1cc(-c2ccc3ocnc3c2)nc2c(C(=O)N[C@@H](C3CC3)C(F)(F)F)cnn12 [III-110] | 0.4 µg/mL (≈ 0.963 µM) |
| Cc1cc(C)n2ncc(C(=O)NC(C)(C)C3CC3)c2n1 [III-2] | 27.4 µg/mL (≈ 101 µM) |
| Cc1cc(-c2ccns2)nc2c(C(=O)N[C@@H](C)C3CC3)cnn12 [III-197] | 6.5 µg/mL (≈ 19.9 µM) |
| C#CC(NC(=O)c1cnn2c(C)cc(-c3cccc(OC)c3)nc12)C(F)(F)F (centres unmarked) [III-96] | 2 µg/mL (≈ 5.15 µM) |
| Cc1cc(-c2cccc(F)c2)nc2c(C(=O)N[C@@H](C)C3CC3)cnn12 [III-56] | 1.1 µg/mL (≈ 3.25 µM) |
| Cc1cc(C)n2ncc(C(=O)N[C@@H](C)C3CCCCC3)c2n1 [III-4] | 16.1 µg/mL (≈ 53.6 µM) |
| COc1cccc(-c2cc(C)n3ncc(C(=O)N[C@@H](C)C4CC4)c3n2)c1 [III-57] | 2.7 µg/mL (≈ 7.7 µM) |
| Cc1cc(-c2cccc(F)n2)nc2c(C(=O)N[C@@H](C)C3CC3)cnn12 [III-134] | 0.8 µg/mL (≈ 2.36 µM) |
| Cc1cc(-c2ccc(F)cc2C#N)nc2c(C(=O)N[C@@H](C)C3CC3)cnn12 [III-152] | 0.5 µg/mL (≈ 1.38 µM) |
| Cc1cc(NC2CC2)nc2c(C(=O)NC(C3CC3)C(F)(F)F)cnn12 (centres unmarked) [III-44] | 3 µg/mL (≈ 8.49 µM) |
| Cc1cc(NC2CC2)nc2c(C(=O)N[C@@H](C)C3CC3)cnn12 [III-166] | 10.9 µg/mL (≈ 36.4 µM) |
| C#CC(C)(C)NC(=O)c1cnn2c(C)cc(-c3cccc(OC)c3)nc12 [III-69] | 0.5 µg/mL (≈ 1.44 µM) |
| Cc1cc(N2CCC(F)(F)C2)nc2c(C(=O)NC(C3CC3)C(F)(F)F)cnn12 (centres unmarked) [III-67] | 1.9 µg/mL (≈ 4.71 µM) |
| Cc1cc(-c2cccnc2)nc2c(C(=O)NC(C)C(F)(F)F)cnn12 (centres unmarked) [III-43] | 12.1 µg/mL (≈ 34.6 µM) |
| Cc1cc(-c2cccc(Cl)n2)nc2c(C(=O)N[C@@H](C)C3CC3)cnn12 [III-131] | 0.6 µg/mL (≈ 1.69 µM) |
| Cc1cc(-c2ccc(Cl)nc2)nc2c(C(=O)NC(C3CC3)C(F)(F)F)cnn12 (centres unmarked) [III-116] | 1 µg/mL (≈ 2.44 µM) |
| Cc1cc(N2CCCC(F)(F)C2)nc2c(C(=O)N[C@H](C3CC3)C(F)(F)F)cnn12 [III-94] | 0.6 µg/mL (≈ 1.44 µM) |
